Laboratory results reported in patent US10118955B2, “C-terminal fragments of glucagon-like peptide-1 (GLP-1)” (The General Hospital Corporation, priority 2008, dated 2018).
Ends that are not written are not given here.

How the values were obtained:
white adipocytes = conditions: Rodrigue-Way et al. 2007; cited from earlier work
PPARγ mRNA = assay: liver mRNA levels by QPCR in mice infused with GLP-1(28-36)amide; assay type: in vivo; conditions: 28-36 infusion 3 weeks; for PPARγ mRNA/QPCR Fold Difference compared to LFD: normalized to LFD mice as 1.0, parentheses = down-regulation
Procedure: (§1) Mice were placed on VHFD or a LFD control diets at 6 weeks of age. Continuous infusion of GLP-1(28-36)amide, 6.5 nanomoles/24 hrs/KgBW via osmopumps was started at ten weeks of age and was continued for 3 weeks. Body weights were measured before and during these three weeks. Values are means and S.D.s of four mice in each group.
(§2) An examination of gene expression profiles in the livers of GLP-1(28-36)amide treated mice was performed. Measurements of mRNA levels by quantitative polymerase chain reaction (QPCR) in livers of mice given a very high fat diet (VHFD) or a normal low fat diet (LFD) for four weeks followed by subcutaneous osmopump infusions of either vehicle or GLP-1(28-36)amide for three additional weeks. Data in Table 2, below, show changes in mRNA levels in LFD and VHFD groups of mice comparing vehicle versus GLP-1(28-36)amide where vehicle is set at a value of 1.0. […] GLP-1(28-36)amide appears to regulate PEPCK, PPARg, CD36, SCD1, SREBP1c, FASN, and PPARa.

CD36 mRNA = assay: as above; assay type: in vivo; conditions: 28-36 infusion 3 weeks; for CD36 mRNA/QPCR Fold Difference compared to LFD: normalized to LFD mice as 1.0, parentheses = down-regulation
Procedure: as §1, §2

CPT1 mRNA = assay: as above; assay type: in vivo; conditions: 28-36 infusion 3 weeks; for CPT1 mRNA/QPCR Fold Difference compared to LFD: normalized to LFD mice as 1.0, parentheses = down-regulation
Procedure: as §1, §2

PPARα mRNA = assay: as above; assay type: in vivo; conditions: 28-36 infusion 3 weeks; for PPARα mRNA/QPCR Fold Difference compared to LFD: normalized to LFD mice as 1.0, parentheses = down-regulation
Procedure: as §1, §2

FASN mRNA = assay: as above; assay type: in vivo; conditions: 28-36 infusion 3 weeks
Procedure: as §1, §2

SREBP-1c mRNA = assay: as above; assay type: in vivo; conditions: 28-36 infusion 3 weeks; for SREBP-1c mRNA/QPCR Fold Difference compared to LFD: normalized to LFD mice as 1.0, parentheses = down-regulation
Procedure: as §1, §2

[1] = system: PEPCK (phosphopyruvate carboxykinase) mRNA; assay: as above; assay type: in vivo; conditions: 28-36 infusion 3 weeks; for PEPCK mRNA/QPCR Fold Difference compared to LFD: normalized to LFD mice as 1.0, parentheses = down-regulation
Procedure: as §1, §2

SCD-1 mRNA = assay: as above; assay type: in vivo
Procedure: as §1, §2

PGC1α mRNA = assay: as above; assay type: in vivo; conditions: 28-36 infusion 3 weeks
Procedure: as §1, §2

ACOX mRNA = assay: as above; assay type: in vivo; conditions: 28-36 infusion 3 weeks; for ACOX mRNA/QPCR Fold Difference compared to LFD: normalized to LFD mice as 1.0, parentheses = down-regulation
Procedure: as §1, §2

[2] = system: phosphoACC (pACC, phospho-AcetylCoA carboxylase); assay: liver ACC / phosphoACC protein expression after infusion; assay type: in vivo; conditions: mice fed a very high fat diet, infusion for three weeks
Source text: FIGS. 4A-4C are bar graphs showing regulation of PEPCK (4A) and ACC Protein Expression (both the phosphorylated (pACC) and unphosphorylated (ACC) forms (4B) in the presence and absence of the GLP-1(28-36) peptide, as well as the effect of the peptide on ratios of phosphorylated to unphosphorylated ACC (4C).
This is important since ACC is highly regulated in the liver and is the key enzyme responsible for the synthesis of malonyl CoA from AcetylCoA and is a precursor of fatty acid synthesis and a potent inhibitor of CPT1 (carnitine palmitoyl transferase 1), the rate limiting enzyme in the transport of fatty acids into the beta oxidation machinery of mitochondria. This means that GLP-1(28-36) is exerting an inhibition on fatty acid oxidation (beta oxidation). The increase in SCD1 expression in response to infusion of GLP-1(28-36)amide is consistent with an increase in ACC activity since SCD1 is believed to inhibit AMP kinase which is an inhibitor of ACC. The mechanism currently proposed for the prevention of weight gain by GLP-1(28-36)amide in mice fed a very high fat diet involves a dual effect of GLP-1(28-36)amide on adipose tissue to enhance lipolysis and fat burning and inhibit lipogenesis. The increased fatty acid cycling and hypertriglyceridemia enhances hepatic fatty acid oxidation with consequent coupled enhanced gluconeogenesis driven by the enhanced fat burning. […]

[3] = infusion in mice fed a very high fat diet: body weight, adipogenesis, food intake; assay type: in vivo; conditions: for weight gain: mice on VHFD (60% fat), continuous infusion 6.5 nanomoles/24 hrs/KgBW via osmopumps, 3 weeks
Procedure: as §1
Glucagon-like peptide-1 (GLP-1) is an insulinotropic peptide that stimulates glucose-dependent insulin secretion (Kieffer and Habener, Endocr Rev. 20(6):876-913 (1999)). […] The neutral endopeptidase, NEP 24.11 is proposed to be responsible for the degradation of GLP-1, much as the Dpp4 had been thought of as a peptide degrading enzyme for GLP-1 (Plamboeck et al., Diabetologia. 48(9):1882-90 (2005)). The carboxyl-terminal sequence of GLP-1, […]amide, GLP-1(28-36)amide, is a major peptide product of the cleavage of GLP-1 by NEP 24.11 (Hupe-Sodmann et al., Regul Pept. 58(3):149-56 (1995)). Therefore GLP-1(28-36)amide was infused into mice both fed a normal chow diet (LFD) and a very high fat diet (VHFD) for three weeks.

isolated hepatocytes = assay: hepatic gluconeogenesis in isolated hepatocytes (preliminary studies); assay type: cell-based; conditions: high (micromolar) concentrations
[4] = Ban et al. 2008; cited from earlier work
3T3-L1 adipocytes = assay: lipolysis (glycerol release) in 3T3-L1 adipocytes; assay type: cell-based; conditions: 1-30 nM on a background of 10 nM isoproterenol, 60 min
Procedure: Preliminary studies on the effect of GLP-1(9-36) on lipolysis were also performed in isolated mouse hepatocytes and 3T3-L1 adipocytes. Glycerol release into the culture medium was used as a measure of active lipolysis, and isoproterenol serves as a known stimulator of lipolysis. In these experiments GLP-1(9-36)amide was added dose-wise (1-30 nM) on a background of 10 nM isoproterenol. Incubations were for 60 min.

[5] = system: hepatic glucose production (gluconeogenesis); conditions: Elahi et al. 2008; cited from earlier work
GLP-1 GPCR = GLP-1 GPCR (Homo sapiens, UniProt P43220); conditions: (nM); cited from earlier work
Chain of GLP-1 GPCR (P43220 24-463): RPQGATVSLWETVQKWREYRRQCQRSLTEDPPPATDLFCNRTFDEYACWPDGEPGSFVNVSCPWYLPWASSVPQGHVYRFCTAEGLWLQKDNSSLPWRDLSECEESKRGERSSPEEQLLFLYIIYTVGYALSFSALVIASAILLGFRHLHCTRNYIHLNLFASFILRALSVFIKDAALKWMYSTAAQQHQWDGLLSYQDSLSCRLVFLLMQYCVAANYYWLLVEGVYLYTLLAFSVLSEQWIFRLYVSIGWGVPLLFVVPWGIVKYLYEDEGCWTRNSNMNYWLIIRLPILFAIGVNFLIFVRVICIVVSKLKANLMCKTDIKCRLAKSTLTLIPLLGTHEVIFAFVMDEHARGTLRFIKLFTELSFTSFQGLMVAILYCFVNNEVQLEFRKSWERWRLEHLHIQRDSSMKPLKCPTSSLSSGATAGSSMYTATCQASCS

[6] = LFD mice, vehicle set at 1.0, parentheses = down-regulation
[7] = VHFD mice, VHFD vehicle set at 1.0, parentheses = down-regulation
[8] = LFD mice, normalized to LFD mice as 1.0, parentheses = down-regulation
[9] = high fat fed mice, infusion for three weeks

Cc1[nH]c2ccccc2c1C[C@@H](NC(=O)[C@@H](N)Cc1cnc[nH]1)C(=O)N[C@@H](C)C(=O)N[C@@H](Cc1c[nH]c2ccccc12)C(=O)N[C@H](Cc1ccccc1)C(=O)N[C@@H](CCCCN)C(N)=O [hexarelin, H-W(Me)-A-W-F-Kamide]
mitochondrial biogenesis and fat burning phenotype (white adipocytes): promote mitochondrial biogenesis and a fat burning phenotype

FIAWLVKGR-NH2 [28-36]
PPARγ mRNA/QPCR Fold Difference compared to LFD (PPARγ mRNA; LFD mice): 1.54 fold
PPARγ mRNA/QPCR Fold Difference compared to PEPTIDE (28-36) (PPARγ mRNA; [6]): 1.54 fold
PPARγ mRNA/QPCR Fold Difference compared to PEPTIDE (28-36) (PPARγ mRNA; [7]): 1.4 fold
PPARγ mRNA/QPCR Fold Difference compared to LFD (PPARγ mRNA; VHFD mice): 2.2 fold
CD36 mRNA/QPCR Fold Difference compared to LFD (CD36 mRNA; LFD mice): 1.25 fold
CD36 mRNA/QPCR Fold Difference compared to PEPTIDE (28-36) (CD36 mRNA; [6]): 1.25 fold
CD36 mRNA/QPCR Fold Difference compared to PEPTIDE (28-36) (CD36 mRNA; [7]): 1.7 fold
CD36 mRNA/QPCR Fold Difference compared to LFD (CD36 mRNA; VHFD mice): 1.7 fold
CPT1 mRNA/QPCR Fold Difference compared to LFD (CPT1 mRNA; LFD mice): 1.2 fold
CPT1 mRNA/QPCR Fold Difference compared to PEPTIDE (28-36) (CPT1 mRNA; [6]): 1.21 fold
CPT1 mRNA/QPCR Fold Difference compared to PEPTIDE (28-36) (CPT1 mRNA; [7]): 1.02 fold
CPT1 mRNA/QPCR Fold Difference compared to LFD (CPT1 mRNA; VHFD mice): 1.74 fold
PPARα mRNA/QPCR Fold Difference compared to LFD (PPARα mRNA; LFD mice): 1.2 fold
PPARα mRNA/QPCR Fold Difference compared to PEPTIDE (28-36) (PPARα mRNA; [6]): 1.2 fold
PPARα mRNA/QPCR Fold Difference compared to PEPTIDE (28-36) (PPARα mRNA; [7]): 1.35 fold
PPARα mRNA/QPCR Fold Difference compared to LFD (PPARα mRNA; VHFD mice): 1.9 fold
FASN mRNA/QPCR Fold Difference compared to LFD (FASN mRNA; [8]): 1 fold
FASN mRNA/QPCR Fold Difference compared to PEPTIDE (28-36) (FASN mRNA; [6]): 1 fold
FASN mRNA/QPCR Fold Difference compared to PEPTIDE (28-36) (FASN mRNA; [7]): 1.2 fold
SREBP-1c mRNA/QPCR Fold Difference compared to LFD (SREBP-1c mRNA; LFD mice): 1 fold
SREBP-1c mRNA/QPCR Fold Difference compared to PEPTIDE (28-36) (SREBP-1c mRNA; [6]): 1.1 fold
SREBP-1c mRNA/QPCR Fold Difference compared to PEPTIDE (28-36) (SREBP-1c mRNA; [7]): 1.3 fold
SREBP-1c mRNA/QPCR Fold Difference compared to LFD (SREBP-1c mRNA; VHFD mice): 1 fold
PEPCK mRNA/QPCR Fold Difference compared to LFD ([1]; LFD mice): 1.6 fold
PEPCK mRNA/QPCR Fold Difference compared to PEPTIDE (28-36) [1, 6]: 1.6 fold
PEPCK mRNA/QPCR Fold Difference compared to PEPTIDE (28-36) [1, 7]: 1.5 fold
PEPCK mRNA/QPCR Fold Difference compared to LFD ([1]; VHFD mice): 1.6 fold
SCD1 expression (SCD-1 mRNA; in response to infusion of GLP-1(28-36)amide): increase
SCD-1 mRNA/QPCR Fold Difference compared to PEPTIDE (28-36) (SCD-1 mRNA; liver, VHFD mice, 28-36 infusion 3 weeks, VHFD vehicle set at 1.0, parentheses = down-regulation): 3.05 fold
PGC1α mRNA/QPCR Fold Difference compared to LFD (PGC1α mRNA; [8]): 1.35 fold
PGC1α mRNA/QPCR Fold Difference compared to PEPTIDE (28-36) (PGC1α mRNA; [6]): 1.4 fold
PGC1α mRNA/QPCR Fold Difference compared to PEPTIDE (28-36) (PGC1α mRNA; [7]): 1.2 fold
ACOX mRNA/QPCR Fold Difference compared to LFD (ACOX mRNA; LFD mice): 1.4 fold
ACOX mRNA/QPCR Fold Difference compared to PEPTIDE (28-36) (ACOX mRNA; [6]): 1.4 fold
ACOX mRNA/QPCR Fold Difference compared to PEPTIDE (28-36) (ACOX mRNA; [7]): 1.04 fold
ACOX mRNA/QPCR Fold Difference compared to LFD (ACOX mRNA; VHFD mice): 1.2 fold
liver phosphoACC (pACC) [2]: decrease
adipogenesis [3, 9]: completely prevented
food intake [3, 9]: without observable differences
weight gain ([3]; listed as GLP-1(28-36)): attenuates weight gain
weight gain ([3]; listed as GLP-1(28-36)amide): completely prevented

GLP-1(9-36)amide
actions on hepatic gluconeogenesis (isolated hepatocytes): only weak actions
cardioprotective actions [4]: exerts cardioprotective actions
lipolysis (glycerol release into the culture medium) (3T3-L1 adipocytes): stimulates lipolysis in 3T3-L1 adipocytes in a dose dependent manner
hepatic glucose production (gluconeogenesis) [5]: inhibits

exendin-4
binding affinity to the GLP-1 GPCR (GLP-1 GPCR): high affinity
